Results taken from patent US20140135310A1, “SULPHONAMIDE DERIVATIVES OF ALICYCLIC AMINES FOR THE TREATMENT OF CENTRAL NERVOUS SYSTEM DISEASES” (Adamed Sp. z o.o., priority 2011, published 2014).

Key:
[1] = target: dopaminergic receptors D3 (Homo sapiens, UniProt P35462); assay: Radioligand binding assay, dopaminergic D3 receptors; details: test compound 1×10^−6 M
Summary of the method: (§1)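 Scintillation read-out. Specific = total − nonspecific (excess cold ligand). Data as % of control specific binding / % inhibition; IC50 by Hill fit; Ki = IC50/(1+L/KD), KD from Scatchard plot.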

[2] = target: T1, 5-HT1A receptor (rat hippocampus) (Rattus norvegicus, UniProt P19327); assay: Radioligand binding assay, serotoninergic 5-HT1A receptors; details: binding assay result in %, Table 5a;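 note: test compound at 1 µM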
T1 construct: hippocampus; from tissue; host or cells: rat hippocampus
T1 sequence (P19327 1-422): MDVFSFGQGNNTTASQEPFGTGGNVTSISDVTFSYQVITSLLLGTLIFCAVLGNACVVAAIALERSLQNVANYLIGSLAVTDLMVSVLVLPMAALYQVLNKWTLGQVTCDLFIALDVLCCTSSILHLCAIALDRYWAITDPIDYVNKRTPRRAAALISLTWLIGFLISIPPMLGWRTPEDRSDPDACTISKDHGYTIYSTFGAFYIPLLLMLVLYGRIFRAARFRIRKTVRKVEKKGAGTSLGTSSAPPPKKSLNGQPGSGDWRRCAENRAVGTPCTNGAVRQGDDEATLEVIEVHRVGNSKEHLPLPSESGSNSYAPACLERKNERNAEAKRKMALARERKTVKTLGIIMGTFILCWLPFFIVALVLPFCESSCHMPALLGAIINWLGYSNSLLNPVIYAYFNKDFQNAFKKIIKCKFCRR

[3] = target: T2, 5-HT2A receptor (Homo sapiens, UniProt P28223); assay: Radioligand binding assay, serotoninergic 5-HT2A receptors; details: binding assay result in %, Table 5a
T2 construct: purchased PerkinElmer
Summary of the method: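 Competition curves from scintillation-counted specific binding (total minus binding with excess unlabelled ligand) were Hill-fitted to give IC50, converted to Ki via Cheng-Prusoff using Scatchard-derived Kd.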

[4] = target: dopaminergic receptors D2 (Homo sapiens, UniProt P14416); assay: Radioligand binding assay, dopaminergic D2 receptors; details: binding assay, test compound 1×10^−6 M
Summary of the method: as §1

[5] = target: T3, 5-HT7 receptor (Homo sapiens, UniProt P34969); assay: Radioligand binding assay, serotoninergic 5-HT7 receptors; details: binding assay result in %, Table 5a;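 note: test compound at 1 µM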
T3 construct: purchased PerkinElmer
Summary of the method: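 Ki values used the Cheng–Prusoff equation, with KD from Scatchard analysis, applied to IC50 from Hill fits of human 5-HT7 radioligand competition curves. Bound radioligand was counted by scintillation, and excess unlabelled ligand set the non-specific binding.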

[6] = target: T4, 5-HT6 receptor (Homo sapiens, UniProt P50406); assay: Radioligand binding assay, serotoninergic 5-HT6 receptors; details: binding assay result in %, Table 5a;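 note: test compound at 1 µM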
T4 construct: purchased PerkinElmer
Summary of the method: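 Values are Ki from Cheng–Prusoff, taking IC50 from Hill nonlinear regression of competition curves and KD from a Scatchard plot. Specific binding was total minus binding with excess unlabelled ligand. Radioligand displacement was detected by scintillation counting, and data were also reported as percent of control specific binding.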

[7] = target: T5, serotonin transporter (SERT) (Homo sapiens, UniProt P31645); assay: Radioligand binding assay, serotonin transporter (SERT); details: binding assay, test compound 1×10^−6 M
T5 construct: expressed in transfected cells; host or cells: CHO cells
Summary of the method: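 Values are derived from competition curves fitted by the Hill equation to give IC50, then converted to Ki by Cheng-Prusoff with radioligand Kd from Scatchard analysis. Specific binding equals total minus non-specific (excess cold ligand), counted by scintillation, and is also expressed as percent inhibition of control.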

[8] = system: α1 adrenergic receptors (rat cerebral cortex); assay: Radioligand binding assay, adrenergic α1 receptors; details: test compound 1×10^−6 M
Summary of the method: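 Values derive from radioligand displacement, with non-specific binding defined by excess cold ligand and detection by scintillation. Hill-fit IC50s were converted to Ki via Cheng-Prusoff using Scatchard-derived Kd; percent inhibition of control specific binding also reported.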

T3 sequence (P34969 whole entry): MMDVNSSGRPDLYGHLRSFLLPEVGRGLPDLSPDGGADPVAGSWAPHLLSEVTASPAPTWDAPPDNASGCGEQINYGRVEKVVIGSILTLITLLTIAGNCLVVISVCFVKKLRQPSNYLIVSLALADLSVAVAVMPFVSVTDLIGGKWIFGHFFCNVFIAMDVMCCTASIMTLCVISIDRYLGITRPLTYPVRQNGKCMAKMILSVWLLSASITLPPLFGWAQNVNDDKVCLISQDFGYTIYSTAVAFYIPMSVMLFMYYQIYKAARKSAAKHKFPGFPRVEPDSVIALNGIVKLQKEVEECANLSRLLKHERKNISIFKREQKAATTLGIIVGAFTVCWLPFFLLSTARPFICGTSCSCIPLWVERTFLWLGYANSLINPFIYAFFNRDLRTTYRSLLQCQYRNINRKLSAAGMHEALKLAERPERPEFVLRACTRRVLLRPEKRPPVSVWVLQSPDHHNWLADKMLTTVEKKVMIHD
T4 sequence (P50406 whole entry): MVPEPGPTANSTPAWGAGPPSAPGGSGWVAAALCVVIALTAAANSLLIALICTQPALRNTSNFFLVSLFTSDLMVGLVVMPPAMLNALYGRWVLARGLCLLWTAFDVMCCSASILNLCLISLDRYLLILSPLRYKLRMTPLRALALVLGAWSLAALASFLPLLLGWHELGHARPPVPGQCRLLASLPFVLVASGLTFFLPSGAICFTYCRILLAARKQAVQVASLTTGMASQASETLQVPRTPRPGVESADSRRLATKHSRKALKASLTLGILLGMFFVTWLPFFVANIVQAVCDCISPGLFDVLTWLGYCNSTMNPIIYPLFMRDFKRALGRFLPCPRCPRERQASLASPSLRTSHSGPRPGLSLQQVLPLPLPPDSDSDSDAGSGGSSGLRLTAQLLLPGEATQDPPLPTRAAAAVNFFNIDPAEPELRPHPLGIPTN
T2 sequence (P28223 whole entry): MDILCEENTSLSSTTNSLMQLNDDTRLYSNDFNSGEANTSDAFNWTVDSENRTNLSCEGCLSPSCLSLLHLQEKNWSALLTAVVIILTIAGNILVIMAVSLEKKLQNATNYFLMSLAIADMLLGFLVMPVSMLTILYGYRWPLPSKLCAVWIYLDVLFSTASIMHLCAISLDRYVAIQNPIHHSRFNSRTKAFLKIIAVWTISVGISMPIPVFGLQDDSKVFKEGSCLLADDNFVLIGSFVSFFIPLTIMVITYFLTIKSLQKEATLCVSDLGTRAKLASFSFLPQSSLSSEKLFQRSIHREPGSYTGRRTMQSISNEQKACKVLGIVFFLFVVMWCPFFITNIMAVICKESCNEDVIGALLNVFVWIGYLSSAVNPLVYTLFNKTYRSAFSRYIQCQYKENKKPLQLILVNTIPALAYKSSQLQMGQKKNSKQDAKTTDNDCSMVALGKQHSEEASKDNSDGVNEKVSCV
dopaminergic receptors D3, sequence (P35462 whole entry): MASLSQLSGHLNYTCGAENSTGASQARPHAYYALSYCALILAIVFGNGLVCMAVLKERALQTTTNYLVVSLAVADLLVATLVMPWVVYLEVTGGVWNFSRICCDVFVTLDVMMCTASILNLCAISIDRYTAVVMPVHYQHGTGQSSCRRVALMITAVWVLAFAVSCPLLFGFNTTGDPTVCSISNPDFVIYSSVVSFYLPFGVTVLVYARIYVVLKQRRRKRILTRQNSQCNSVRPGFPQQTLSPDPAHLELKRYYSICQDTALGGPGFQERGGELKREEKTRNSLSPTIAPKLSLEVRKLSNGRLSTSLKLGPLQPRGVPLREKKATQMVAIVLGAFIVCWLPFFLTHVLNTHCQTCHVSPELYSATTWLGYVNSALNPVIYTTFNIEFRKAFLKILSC
T5 sequence (P31645 whole entry): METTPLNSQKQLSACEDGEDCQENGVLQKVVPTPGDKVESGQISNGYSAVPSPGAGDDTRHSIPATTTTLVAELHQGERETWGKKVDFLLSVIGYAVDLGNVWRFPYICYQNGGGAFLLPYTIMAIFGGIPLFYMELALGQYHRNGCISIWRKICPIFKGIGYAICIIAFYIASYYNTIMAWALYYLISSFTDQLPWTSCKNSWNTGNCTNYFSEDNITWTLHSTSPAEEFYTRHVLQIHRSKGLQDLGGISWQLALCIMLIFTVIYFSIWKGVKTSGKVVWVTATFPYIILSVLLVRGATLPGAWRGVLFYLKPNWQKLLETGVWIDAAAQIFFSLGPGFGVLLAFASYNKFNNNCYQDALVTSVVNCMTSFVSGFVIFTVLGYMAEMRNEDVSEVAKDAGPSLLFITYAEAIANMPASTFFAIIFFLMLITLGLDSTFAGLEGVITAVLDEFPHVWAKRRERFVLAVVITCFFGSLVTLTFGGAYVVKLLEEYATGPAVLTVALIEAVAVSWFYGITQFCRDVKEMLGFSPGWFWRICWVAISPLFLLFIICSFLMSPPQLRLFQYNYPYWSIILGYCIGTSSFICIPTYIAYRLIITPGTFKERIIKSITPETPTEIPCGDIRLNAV
dopaminergic receptors D2, sequence (P14416 whole entry): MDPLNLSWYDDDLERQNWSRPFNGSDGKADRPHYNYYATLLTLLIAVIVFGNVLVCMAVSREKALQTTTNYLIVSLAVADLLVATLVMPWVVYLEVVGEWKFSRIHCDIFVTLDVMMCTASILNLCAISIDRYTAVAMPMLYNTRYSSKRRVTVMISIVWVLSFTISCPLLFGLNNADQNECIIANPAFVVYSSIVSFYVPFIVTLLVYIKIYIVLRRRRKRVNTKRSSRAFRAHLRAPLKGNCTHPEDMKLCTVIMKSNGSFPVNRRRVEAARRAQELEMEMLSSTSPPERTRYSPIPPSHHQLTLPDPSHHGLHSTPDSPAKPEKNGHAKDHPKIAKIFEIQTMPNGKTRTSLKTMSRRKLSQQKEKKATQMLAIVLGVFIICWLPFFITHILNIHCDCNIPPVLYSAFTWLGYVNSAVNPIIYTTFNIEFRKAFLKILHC

Row | Compound | inhibition at 1 µM [1] [%] | inhibition at 1 µM [2] [%] | inhibition at 1 µM [3] [%] | inhibition at 1 µM [4] [%] | inhibition at 1 µM [5] [%] | inhibition at 1 µM [6] [%] | inhibition at 1 µM [7] [%] | α1 [%] [8] [%] | D3 [%] [1] [%] | 5-HT1A [%] [2] [%] | 5-HT2A [%] [3] [%] | D2 [%] [4] [%] | 5-HT7 [%] [5] [%] | 5-HT6 [%] [6] [%] | SERT [%] [7] [%]
1 | O=S(=O)(NC1CCN(CCCc2noc3cc(F)ccc23)C1)c1cccc(Cl)c1 (stereo not shown) [Compound 9, 3-Chloro-N-[1-[3-(6-fluoro-1,2-benzoxazol-3-yl)propyl]pyrrolidin-3-yl]benzenesulphonamide] | 30 | 12 | 95 | 88 | 90 | 75 | 2 | 83 |  |  |  |  |  |  | 
2 | N-[1-[3-(6-Fluoro-1,2-benzoxazol-3-yl)propyl]pyrrolidin-3-yl]benzene-sulphonamide [Compound 6] |  |  |  |  |  |  |  | 98 | 8 | 14 | 77 | 70 | 83 | 44 | 18
3 | O=S(=O)(NC1CCN(CCCc2c[nH]c3ccc(Cl)cc23)C1)c1ccc(F)cc1 (stereo not shown) [Compound 83, N-[1-[3-(5-Chloro-1H-indol-3-yl)propyl]pyrrolidin-3-yl]-4-fluoro-benzenesulphonamide] | 76 | 104 | 82 | 44 | 86 | 84 | 78 | 23 |  |  |  |  |  |  | 
4 | O=S(=O)(NCC1CN(CCOc2cccc3c2OCCO3)C1)c1ccc(I)cc1 [Compound 193, N-[[1-[2-(2,3-Dihydro-1,4-benzodioxin-5-yloxy)ethyl]azetidin-3-yl]methyl]-4-iodo-benzenesulphonamide] | 55 | 84 | 88 | 81 | 92 | 9 | 41 | 71 |  |  |  |  |  |  | 
5 | O=S(=O)(NCC1CCN(CCOc2cccc3[nH]ccc23)CC1)c1ccc2ccccc2c1 [Compound 67, N-[[1-[2-(1H-Indol-4-yloxy)ethyl]-4-piperidine]methyl]naphthalene-2-sulphonamide] |  |  |  |  |  |  |  | 91 | 94 | 76 | 80 | 57 | 79 | 87 | 38
6 | O=S(=O)(NC1CCN(CCCc2c[nH]c3ccc(Cl)cc23)C1)c1ccc(Cl)cc1 (stereo not shown) [Compound 85, 4-Chloro-N-[1-[3-(5-chloro-1H-indol-3-yl)propyl]pyrrolidin-3-yl]-benzene-sulphonamide] | 75 | 102 | 64 | 45 | 89 | 82 | 70 | 9 |  |  |  |  |  |  | 
7 | O=S(=O)(NC1CCN(CCOc2cccc3ccccc23)CC1)c1ccc2ccccc2c1 [Compound 120, N-[1-[2-(1-Naphthyloxy)ethyl]-4-piperidine]naphthalene-2-sulphonamide] |  |  |  |  |  |  |  | −9 | 30 | 8 | 68 | −33 | 89 | 24 | 21
8 | O=S(=O)(NCC1CN(CCOc2cccc3ccccc23)C1)c1cc2ccccc2s1 [Compound 163, N-[[1-[2-(1-Naphthyloxy)ethyl]azetidin-3-yl]methyl]benzothiophene-2-sulphonamide] | 99 | 88 | 99 | 73 | 88 | 87 | 45 | 27 |  |  |  |  |  |  | 
9 | O=S(=O)(NC1CCN(CCCc2noc3cc(F)ccc23)C1)c1ccc(F)cc1 (stereo not shown) [Compound 8, 4-Fluoro-N-[1-[3-(6-fluoro-1,2-benzoxazol-3-yl)propyl]pyrrolidin-3-yl]benzenesulphonamide] | 18 | 5 | 97 | 72 | 85 | 64 | -13 | 95 |  |  |  |  |  |  | 
10 | O=S(=O)(NC1CN(CCOc2cccc3[nH]ccc23)C1)c1ccccc1 [Compound 45, N-[1-[2-(1H-indol-4-yloxy)ethyl]azetidin-3-yl]benzenesulphonamide] | 87 | 88 | 75 | 53 | 93 | 0 | -4 | 72 |  |  |  |  |  |  | 
11 | O=S(=O)(NC1CN(CCOc2cccc3c2OCCO3)C1)c1ccc2ccccc2c1 [Compound 95, N-[1-[2-(2,3-Dihydro-1,4-benzodioxan-8-yloxy)ethyl]azetidin-3-yl]naphthalene-2-sulphonamide] |  |  |  |  |  |  |  | −21 | 1 | 94 | 0 | 5 | 94 | 9 | −4
12 | O=S(=O)(NC1CCN(CCCc2noc3cc(F)ccc23)C1)c1ccc(Cl)s1 (stereo not shown) [Compound 22, 5-Chloro-N-[1-[3-(6-fluoro-1,2-benzoxazol-3-yl)propyl]pyrrolidin-3-yl]thiophene-2-sulphonamide] | 23 | 0 | 95 | 85 | 85 | 72 | 5 | 91 |  |  |  |  |  |  | 
13 | O=S(=O)(NCC1CCN(CCOc2cccc3c2OCCO3)C1)c1cccs1 (stereo not shown) [Compound 302, N-[[1-[2-(2,3-Dihydro-1,4-benzodioxin-5-yloxy)ethyl]pyrrolidin-3-yl]-methyl]thiophene-2-sulphonamide] | 37 | 89 | 52 | 34 | 105 | 35 | 37 | 63 |  |  |  |  |  |  | 
14 | Cc1cccc(S(=O)(=O)NC2CCN(CCOc3cccc4c3OCCO4)C2)c1 (stereo not shown) [Compound 97, N-[1-[2-(2,3-Dihydro-1,4-benzodioxan-8-yloxy)ethyl]pyrrolidin-3-yl]-3-methylbenzenesulphonamide] |  |  |  |  |  |  |  | 64 | 40 | 84 | 89 | 29 | 105 | 43 | −1
15 | O=S(=O)(NCC1CN(CCOc2cccc3ccccc23)C1)c1ccc2cc(Cl)ccc2c1 [Compound 165, 6-Chloro-N-[[1-[2-(1-naphthyloxy)ethyl]azetidin-3-yl]methyl]naphthalene-2-sulphonamide] | 100 | 87 | 99 | 66 | 105 | 97 | 111 | 15 |  |  |  |  |  |  | 
16 | O=S(=O)(NCC1CCN(CCOc2nsc3ccccc23)C1)c1cccc(O)c1 (stereo not shown) [Compound 43, N-[[1-[2-(1,2-Benzothiazol-3-yloxy)ethyl]pyrrolidin-3-yl]methyl]-3-hydroxy-benzenesulphonamide] | 29 | 83 | 81 | 55 | 71 | 87 | -7 | 68 |  |  |  |  |  |  | 
17 | O=S(=O)(NC1CCN(CCCc2noc3cc(F)ccc23)C1)c1ccc2c(c1)OCC2 (stereo not shown) [Compound 24, N-[1-[3-(6-Fluoro-1,2-benzoxazol-3-yl)propyl]pyrrolidin-3-yl]-2,3-dihydrobenzofuran-6-sulphonamide] | 52 | 19 | 95 | 94 | 82 | 78 | -10 | 101 |  |  |  |  |  |  | 
